From article PMC12013189, “Phospho-regulated tethering of focal adhesion kinase to vinculin links force transduction to focal adhesion signaling” (Cell Communication and Signaling : CCS, 2025)

Experiments:
[1] = molecular target: T1, FAT domain of FAK (hFAK904-1052 WT) (Homo sapiens, UniProt Q05397); assay: Fluorescence anisotropy binding of FITC LD peptides to FAT-WT; conditions: versus single LD motifs
T1 construct: Expression plasmids for FAT (hFAK904-1052 WT and mutants H14, H23 and H14-23); 6xHis (TEV cleavable) (N, cleaved yes); made in house; host or cells: E. coli BL21(DE3)
T1 sequence (Q05397 904-1052): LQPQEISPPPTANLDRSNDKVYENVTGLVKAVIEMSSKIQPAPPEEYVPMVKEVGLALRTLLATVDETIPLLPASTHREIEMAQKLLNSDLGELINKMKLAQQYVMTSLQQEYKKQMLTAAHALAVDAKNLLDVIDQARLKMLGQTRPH
Text: Expression plasmids for FAT (hFAK904-1052 WT and mutants H14, H23 and H14-23), Vin-FL (hVinculin1-1066) and Vin-T (hVinculin891-1066) were ordered from GenScript in the pET28(+) vector, adding a TEV cleavable N-terminal 6xHis tag to the expressed proteins. Mutant FAT-H14 contains the mutations I936A, H1025A, K1032A; FAT-H23 contains the mutations K955A, R962A, I998A and FAT-14-23 contains the combined mutations I936A, K955A, R962A, I998A, H1025A, K1032A. All plasmids were introduced into E.coli strain BL21(DE3) for expression. Cells were grown in LB media, induced with 1 mM IPTG at an OD (600 nm) of 0.6 and grown over night at 20 °C. Cells were pelleted at 6000 rpm and resuspended in 20 mM Tris pH8, 200 mM NaCl, 5% Glycerol, 10 mM imidazole, 2mM TCEP, 1mM PMSF supplemented with cOmplete protein inhibitor cocktail (Roche). Cells were lysed by sonication and insoluble components removed by centrifugation at 40 K for 1 h at 4 °C. Soluble lysates were cleared through 0.45 μm filters and loaded onto His-Trap affinity columns (Cytiva), washed with step gradients up to 30 mM imidazole and eluted with a gradient up to 500 mM imidazole. Peak-fractions were digested over night with TEV protease (molar ratio ~ 1: 20) at 4 °C. Proteins were diluted to 50 mM NaCl and loaded onto a Source 15Q column, washed with 20 mM Tris pH8, 50 mM NaCl, 5% Glycerol, 1mM TCEP and eluted with a gradient up to 1 M NaCl. Peak fractions were mixed with 1 ml of Ni-NTA beads to remove TEV and uncleaved protein, adding 10 mM imidazole to prevent non-specific binding. The flow-through was concentrated, loaded onto a Superdex200 16/60 column and eluted in 20 mM Tris pH8, 200 mM NaCl, 5% Glycerol, 2mM TCEP. Peak fractions were concentrated, aliquots flash frozen in LN2 and stored at -80 °C.
(§1) Binding curves were determined in a total of 20 µl in black 384 well plates, by titrating protein concentrations (typically up to 50 µM) at a fixed concentration of 25 nM FITC labelled LD peptides (Apeptide Co. Ltd) in 20 mM Tris pH7.5, 150 mM NaCl, 1mM TCEP. Anisotropy measurements were preformed at 22 °C on a Spark® Multimode microplate reader (Tecan) with polarizers, at an excitation wavelength of 485 nm and an emission wavelength of 535 nm (20 nm bandwidth). KD values were extracted by fitting a one-site binding model using the GraphPad Prism software, using the equation: Y = Bmax*X/(KD + X), where Y is the measured anisotropy, X the protein concentration and Bmax the maximal anisotropy value at binding saturation.

[2] = tested on: FAT-H14-23 (I936A, K955A, R962A, I998A, H1025A, K1032A); assay: Fluorescence anisotropy binding to FAT-H14-23 mutant; set-up: species or system human; conditions: both sites mutated
Text: Expression plasmids for FAT (hFAK904-1052 WT and mutants H14, H23 and H14-23), Vin-FL (hVinculin1-1066) and Vin-T (hVinculin891-1066) were ordered from GenScript in the pET28(+) vector, adding a TEV cleavable N-terminal 6xHis tag to the expressed proteins. Mutant FAT-H14 contains the mutations I936A, H1025A, K1032A; FAT-H23 contains the mutations K955A, R962A, I998A and FAT-14-23 contains the combined mutations I936A, K955A, R962A, I998A, H1025A, K1032A. All plasmids were introduced into E.coli strain BL21(DE3) for expression. Cells were grown in LB media, induced with 1 mM IPTG at an OD (600 nm) of 0.6 and grown over night at 20 °C. […]
as §1

FAT-WT = assay: svAUC peak integration, FAT-WT+LD2/4; format: binding, human
Method: (§2) For svAUC experiments, FAT and Vin-T proteins at 30 µM were incubated with 10 µM LD2/4 peptide in 20 mM Tris pH 7.5, 200 mM NaCl, 5% Glycerol and 1 mM TCEP. svAUC was performed at 20 °C at 48,000 rpm (Vin-T + LD1 + LD2, Fig. S2) or 58,000 rpm (FAT + LD2/4 + Vin-T; Fig. 3) in a XL-I analytical ultracentrifuge (Beckman-Coulter Inc.) equipped with both UV-VIS absorbance and Raleigh interference detection systems, using an An-50Ti rotor, and Epon-charcoal standard double-sector centerpieces (optical pathlength 12 mm or 4 mm for measurements at 100 µM shown in Fig. S2). Sedimentation profiles were recorded at 280 nm. Differential sedimentation coefficient distributions were calculated by least-squares boundary modelling of sedimentation velocity data using the continuous distribution c(s) Lamm equation model as implemented by SEDFIT [46]. These s values were corrected to standard conditions (water, 20 °C, and infinite dilution) using the program SEDNTERP [32] to get the corresponding standard s values (s20,w).

FAT-H14 = assay: svAUC peak integration, FAT-H14+LD2/4; format: binding, human; conditions: 30 µM FAT-H14 + 10 µM LD2/4
Method: as §2

FAT-H23 = assay: svAUC peak integration, FAT-H23+LD2/4; format: binding, human; conditions: 30 µM FAT-H23 + 10 µM LD2/4
Method: as §2

Vin-T = assay: svAUC peak integration, Vin-T+LD2/4; format: binding, human; conditions: 30 µM Vin-T + 10 µM LD2/4
Method: as §2

FAT-WT and Vin-T = assay: svAUC peak integration, FAT-WT+LD2/4+Vin-T; format: binding, human
Method: as §2

FAT-H14 and Vin-T = assay: svAUC peak integration, FAT-H14+LD2/4+Vin-T; format: binding, human; conditions: 30 µM FAT-H14 + 10 µM LD2/4 + 30 µM Vin-T
Method: as §2

FAT-H23 and Vin-T = assay: svAUC peak integration, FAT-H23+LD2/4+Vin-T; format: binding, human; conditions: 30 µM FAT-H23 + 10 µM LD2/4 + 30 µM Vin-T
Method: as §2

[3] = tested on: GST-Vin-T and His-FAT-H14; assay: GST-pulldown of His-FAT with GST-Vin-T and LD2/4; format: binding, human; conditions: 30 µM GST-Vin-T, 10 µM LD2/4, 30 µM His-FAT, western blot anti-His
Method: 30 µM GST-Vin-T, 10 µM LD2/4 and 30 µM His-FAT proteins were incubated with glutathione sepharose beads for 1 h, centrifuged for 1 min at […] and washed 3x with 20 mM Tris pH 7.5, 150 mM NaCl, 0.1% Nonidet P40. Proteins co-sedimented with beads were resuspended in SDS Laemmli buffer, heated to 96 °C for 5 min and subjected to SDS-PAGE and western blotting. His-FAT proteins (WT or mutants) were detected using a primary mouse anti-His antibody (Proteintech) and a secondary HRP conjugated goat anti-mouse antibody (Merck).

[4] = 30 µM FAT-WT + 10 µM LD2/4, 20 °C, 280 nm
[5] = 30 µM FAT-WT + 10 µM LD2/4 + 30 µM Vin-T

SNLSELDRLLLELNAVQHNGSGSGGSGGSGGSGGSGGSGGSGGSGGSATRELDELMASLSD [LD2/4]
increase of affinity for FAT by presence of both LD motifs [1]: approximately 15 fold
binding to FAT-H14-23, in words [2]: no significant binding
c(total) (FAT-WT; 30 µM FAT-WT + 10 µM LD2/4): 0.58
c(Peak 1) [~ 1 s(S)] (FAT-WT; [4]): 0.06
c(Peak 2) [1-2 s(S)] (FAT-WT; [4]): 0.37
c(Peak 3) [ >2 s(S)] (FAT-WT; 30 µM FAT-WT + 10 µM LD2/4, ~2.4 S peak, absence of Vin-T): 0.15
c(Peak 1) [~ 1 s(S)] (FAT-H14): 0.11
c(Peak 2) [1-2 s(S)] (FAT-H14): 0.45
c(Peak 3) [ >2 s(S)] (FAT-H14): 0.05
c(total) (FAT-H14): 0.61
c(Peak 1) [~ 1 s(S)] (FAT-H23): 0.11
c(Peak 2) [1-2 s(S)] (FAT-H23): 0.45
c(Peak 3) [ >2 s(S)] (FAT-H23): 0.03
c(total) (FAT-H23): 0.59
c(Peak 1) [~ 1 s(S)] (Vin-T): 0.18
c(Peak 2) [1-2 s(S)] (Vin-T): 0.59
c(total) (Vin-T): 0.77
c(Peak 2) [1-2 s(S)] (FAT-WT and Vin-T; [5]): 0.68
c(total) (FAT-WT and Vin-T; [5]): 1.08
c(Peak 3) [ >2 s(S)] (FAT-WT and Vin-T; 30 µM FAT-WT + 10 µM LD2/4 + 30 µM Vin-T, ~2.4 S peak): 0.40
amount (c) of tripartite FAT:LD2/4:Vin-T complex (FAT-WT and Vin-T; difference of 2.4 S peak in presence and absence of Vin-T, FAT-WT): ≈ 0.25
c(Peak 2) [1-2 s(S)] (FAT-H14 and Vin-T): 0.57
c(total) (FAT-H14 and Vin-T): 1.09
c(Peak 3) [ >2 s(S)] (FAT-H14 and Vin-T; 2.4 S peak): 0.52
c(Peak 1) [~ 1 s(S)] (FAT-H23 and Vin-T): 0.08
c(Peak 2) [1-2 s(S)] (FAT-H23 and Vin-T): 0.80
c(total) (FAT-H23 and Vin-T): 1.18
c(Peak 3) [ >2 s(S)] (FAT-H23 and Vin-T; ~2.3 S peak): 0.30 and ≈ 0.30
His-FAT-H14 pulled down with GST-Vin-T [3]: only pulled down in the presence of the LD2/4 peptide
